pIC50: −log10 of the molar value. Where a name gives a salt, the structure may show the parent alone.

TAFIa, sequence (Q96IY4 115-423): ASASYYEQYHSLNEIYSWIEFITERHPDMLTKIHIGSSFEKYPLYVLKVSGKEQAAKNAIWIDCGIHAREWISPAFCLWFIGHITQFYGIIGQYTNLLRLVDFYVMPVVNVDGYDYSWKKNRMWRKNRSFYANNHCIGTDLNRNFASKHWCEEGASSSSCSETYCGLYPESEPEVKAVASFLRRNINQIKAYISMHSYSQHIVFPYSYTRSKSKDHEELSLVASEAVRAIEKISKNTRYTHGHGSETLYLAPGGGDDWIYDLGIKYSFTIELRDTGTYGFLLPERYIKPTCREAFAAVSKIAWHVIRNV

The first assay concerns the target TAFIa (Homo sapiens (Human), UniProt Q96IY4). The assay can be described thus: Determination of TAFIa enzyme inhibitory activity (FAAK substrate degradation). It is filed as biochemical. The settings on record: TAFI activated with human thrombin / rabbit lung thrombomodulin; substrate FAAK, absorbance at 330 nm; di-p-toluenesulfonate; read-out: TAFIa IC50. On the procedure:
Determination of TAFIa Enzyme Inhibitory Activity
HEPES buffered saline (20 mM HEPES, 150 mM NaCl, pH 7.4; hereinafter, referred to as HBS) was used in the preparation of a reaction solution. To 12 μL of a 250 μg/mL TAFI solution, 30 μL of an HBS solution containing 4 U/mL human thrombin, 12 U/mL rabbit lung thrombomodulin, and 12 mM CaCl2 was added, and the mixture was gently stirred. Then, TAFI was activated at room temperature. Ten minutes later, thrombin was neutralized by the addition of 10 μL of 100 μM PPACK (thrombin inhibitor) to terminate the activation of TAFI. The formed TAFIa was stored in ice and diluted immediately before use in determination with 2050 μL of an HBS solution containing BSA (bovine serum albumin) adjusted to 0.1% in terms of the final concentration.
(2) Determination of TAFIa Inhibitory Activity
A test substance was dissolved in HBS to prepare a 10-fold dilution series of evaluation concentrations. 80 μL of the TAFIa solution and 10 μL of the test substance were added to each well of a 96-well plate and mixed by shaking for 10 minutes. 10 μL of furylacryloyl-alanyl-lysine (FAAK) adjusted to 5 mg/mL was added to each well, and the change in the absorbance of this mixed solution at 330 nm was read for 30 minutes to determine the degradation rate of the substrate.
(3) Calculation of Inhibitory Activity IC50
The degradation rate of the substrate in each well was applied to a standard curve prepared using the dilution series of the TAFIa solution to calculate TAFIa activity.
Consider `NCCC[C@H]1C[C@]1(C(=O)O)c1cn(-c2ccccc2)cn1` [Example 31, (1R,2S)-2-(3-Aminopropyl)-1-(1-phenyl-1H-imidazol-4-yl)cyclopropanecarboxylic acid di-p-toluenesulfonate], for which the pIC50 (commonly the IC50 on a negative log10 scale, so that one unit is a factor of ten) is 7.82.

The same assay, now with this note: TAFI activated with human thrombin / rabbit lung thrombomodulin; substrate FAAK, absorbance at 330 nm; read-out: TAFIa IC50.
Consider `CC(CN)C[C@H]1C[C@]1(C(=O)O)c1cn(-c2ccccc2)cn1` (relative stereo) [Example 32, (1R*,2S*)-2-(3-Amino-2-methylpropyl)-1-(1-phenyl-1H-imidazol-4-yl)cyclopropanecarboxylic acid], for which the pIC50 was 7.46. Same read-out and setting: as for `Cc1ccc(-n2cnc([C@@]3(C(=O)O)C[C@@H]3CC(C)CN)c2)cc1` (relative stereo) [Example 33, (1R*,2S*)-2-(3-Amino-2-methylpropyl)-1-[1-(4-methylphenyl)-1H-imidazol-4-yl]cyclopropanecarboxylic acid], the figure is 7.41. The same measure, in the same setting: as for `CC(CN)C[C@H]1C[C@]1(C(=O)O)c1cn(-c2ccc(S(C)(=O)=O)cc2)cn1` (relative stereo) [Example 34, (1R*,2S*)-2-(3-Amino-2-methylpropyl)-1-{1-[4-(methylsulfonyl)phenyl]-1H-imidazol-4-yl}cyclopropanecarboxylic acid], the figure is 6.03; as for `NCCC[C@H]1C[C@]1(C(=O)O)c1cn(-c2ccc(O)nc2)cn1` (relative stereo) [Example 35, (1R*,2S*)-2-(3-Aminopropyl)-1-[1-(6-hydroxypyridin-3-yl)-1H-imidazol-4-yl]cyclopropanecarboxylic acid], 6.47; as for `CC(CCN)[C@H]1C[C@]1(C(=O)O)c1cn(-c2ccccc2)cn1` (relative stereo) [Example 36, (1R*,2R*)-2-(3-Amino-1-methylpropyl)-1-(1-phenyl-1H-imidazol-4-yl)cyclopropanecarboxylic acid], 7.44. With `NCCC[C@H]1C[C@]1(C(=O)O)c1cn(-c2cccs2)cn1` (relative stereo) [Example 37, (1R*,2S*)-2-(3-Aminopropyl)-1-[1-(2-thienyl)-1H-imidazol-4-yl]cyclopropanecarboxylic acid dihydrochloride], the pIC50 is 7.00. Consider `NCCC[C@H]1C[C@]1(C(=O)O)c1cn(-c2nccs2)cn1` (relative stereo) [Example 38, (1R*,2S*)-2-(3-Aminopropyl)-1-[1-(1,3-thiazol-2-yl)-1H-imidazol-4-yl]cyclopropanecarboxylic acid], for which the pIC50 is 7.24.

On to `NCCC[C@H]1C[C@]1(C(=O)O)c1cn(-c2ncccn2)cn1` (relative stereo) [Example 39, (1R*,2S*)-2-(3-Aminopropyl)-1-(1-pyrimidin-2-yl-1H-imidazol-4-yl)cyclopropanecarboxylic acid], for which the negative-log IC50 (pIC50) was 7.52.

Turning to `N#Cc1ccc(-n2cnc([C@@]3(C(=O)O)C[C@@H]3CCCN)c2)cc1` (relative stereo) [Example 40, (1R*,2S*)-2-(3-Aminopropyl)-1-[1-(4-cyanophenyl)-1H-imidazol-4-yl]cyclopropanecarboxylic acid], the pIC50 was 7.54.

Consider `NCCC[C@H]1C[C@]1(C(=O)O)c1cn(-c2ccc(F)cn2)cn1` (relative stereo) [Example 41, (1R*,2S*)-2-(3-Aminopropyl)-1-[1-(5-fluoropyridin-2-yl)-1H-imidazol-4-yl]cyclopropanecarboxylic acid], for which the pIC50 is 7.72. The same measure, in the same setting: as for `NCCC[C@H]1C[C@]1(C(=O)O)c1cn(-c2ccc3ccccc3n2)cn1` (relative stereo) [Example 42, (1R*,2S*)-2-(3-Aminopropyl)-1-(1-quinolin-2-yl-1H-imidazol-4-yl)cyclopropanecarboxylic acid], the figure is 7.24; as for `NCCC[C@H]1C[C@]1(C(=O)O)c1cn(-c2ccc3occc3c2)cn1` (relative stereo) [Example 43, (1R*,2S*)-2-(3-Aminopropyl)-1-[1-(1-benzofuran-5-yl)-1H-imidazol-4-yl]cyclopropanecarboxylic acid], 7.59; as for `COc1ccc(-n2cnc([C@@]3(C(=O)O)C[C@@H]3CCCN)c2)nc1` (relative stereo) [Example 44, (1R*,2S*)-2-(3-Aminopropyl)-1-[1-(5-methoxypyridin-2-yl)-1H-imidazol-4-yl]cyclopropanecarboxylic acid], 7.80. As to `NCCC[C@H]1C[C@]1(C(=O)O)c1cn(-c2ccc(Cl)cn2)cn1` (relative stereo) [Example 45, (1R*,2S*)-2-(3-Aminopropyl)-1-[1-(5-chloropyridin-2-yl)-1H-imidazol-4-yl]cyclopropanecarboxylic acid], the pIC50 is 7.20. On the same count and under the same terms, as for `NCCC[C@H]1C[C@]1(C(=O)O)c1cn(-c2cc3ccccc3cn2)cn1` (relative stereo) [Example 46, (1R*,2S*)-2-(3-Aminopropyl)-1-(1-isoquinolin-3-yl-1H-imidazol-4-yl)cyclopropanecarboxylic acid], the figure is 7.80; as for `NCCC[C@H]1C[C@]1(C(=O)O)c1cn(-c2cccc3ccccc23)cn1` (relative stereo) [Example 47, (1R*,2S*)-2-(3-Aminopropyl)-1-[1-(1-naphthyl)-1H-imidazol-4-yl]cyclopropanecarboxylic acid], 7.27. On the same count and under the same terms, as for `Cc1ccc(-n2cnc([C@@]3(C(=O)O)C[C@@H]3CCCN)c2)nc1` (relative stereo) [Example 49, (1R*,2S*)-2-(3-Aminopropyl)-1-[1-(5-methylpyridin-2-yl)-1H-imidazol-4-yl]cyclopropanecarboxylic acid], the figure is 7.74.

As to `CC(C)(CN)C[C@@H]1C[C@]1(C(=O)O)c1cn(-c2ccccc2)cn1` (relative stereo) [Example 52, (1R*,2R*)-2-(3-Amino-2,2-dimethylpropyl)-1-(1-phenyl-1H-imidazol-4-yl]cyclopropanecarboxylic acid], the pIC50 was less than 6.52. Still for that read-out and setting: as for `Cc1ccnc(-n2cnc([C@@]3(C(=O)O)C[C@@H]3CCCN)c2)c1` (relative stereo) [Example 64, (1R*,2S*)-2-(3-Aminopropyl)-1-[1-(4-methylpyridin-2-yl)-1H-imidazol-4-yl]cyclopropanecarboxylic acid], the figure is 7.72. On the same count and under the same terms, as for `Cc1cccc(-n2cnc([C@@]3(C(=O)O)C[C@@H]3CCCN)c2)n1` (relative stereo) [Example 65, (1R*,2S*)-2-(3-Aminopropyl)-1-[1-(6-methylpyridin-2-yl)-1H-imidazol-4-yl]cyclopropanecarboxylic acid], the figure is 7.14; as for `CC(C)(C)CCn1cnc([C@]2(C(=O)O)C[C@H]2CCCN)c1` [Example 27, (1S,2R)-2-(3-Aminopropyl)-1-[1-(3,3-dimethylbutyl)-1H-imidazol-4-yl]cyclopropanecarboxylic acid], less than 7.00. Same read-out and setting: as for `NCCC[C@@H]1C[C@@]1(C(=O)O)c1cn(-c2ccccc2)cn1` [Example 29, (1S,2R)-2-(3-Aminopropyl)-1-(1-phenyl-1H-imidazol-4-yl)cyclopropanecarboxylic acid], the figure is less than 5.00; as for `NCCC[C@H]1C[C@]1(C(=O)O)c1cn(-c2ccccc2)cn1` [Example 30, (1R,2S)-2-(3-Aminopropyl)-1-(1-phenyl-1H-imidazol-4-yl)cyclopropanecarboxylic acid], 7.89. Turning to `NCCC[C@H]1C[C@]1(C(=O)O)c1cn(-c2ccccn2)cn1` [Example 48, (1R,2S)-2-(3-Aminopropyl)-1-(1-pyridin-2-yl-1H-imidazol-4-yl)cyclopropanecarboxylic acid], the pIC50 is 7.96. As to `C[C@@H](CN)C[C@H]1C[C@]1(C(=O)O)c1cn(-c2ccccc2)cn1` [Example 50, (1R,2S)-2-[(2R)-3-Amino-2-methylpropyl]-1-(1-phenyl-1H-imidazol-4-yl)cyclopropanecarboxylic acid], the pIC50 is 7.85. Same read-out and setting: as for `C[C@H](CN)C[C@H]1C[C@]1(C(=O)O)c1cn(-c2ccccc2)cn1` [Example 51, (1R,2S)-2-[(2S)-3-Amino-2-methylpropyl]-1-(1-phenyl-1H-imidazol-4-yl)cyclopropanecarboxylic acid], the figure is 7.46.

The same assay, now with this note: TAFIa IC50.
The compound `CC(C)(C)CCn1cnc(C2(C(=O)O)CC2CCCN)c1` (single isomer, unassigned) [Example 1, (1R*,2S*)-2-(3-Aminopropyl)-1-[1-(3,3-dimethylbutyl)-1H-imidazol-4-yl]cyclopropanecarboxylic acid] showed a pIC50 of 8.06. Still for that read-out and setting: as for `CC(C)(C)CCn1cnc(C2(C(=O)O)CC2CCCN)c1` (single isomer, unassigned) [Example 2, (1R*,2R*)-2-(3-Aminopropyl)-1-[1-(3,3-dimethylbutyl)-1H-imidazol-4-yl]cyclopropanecarboxylic acid], the figure is 6.38.

The assay is the same for the next values; noted with them: read-out: TAFIa IC50.
As for `CC(C)(C)CCn1cnc([C@@]2(C(=O)O)C[C@@H]2CCCN)c1` [Example 28, (1R,2S)-2-(3-Aminopropyl)-1-[1-(3,3-dimethylbutyl)-1H-imidazol-4-yl]cyclopropanecarboxylic acid], the pIC50 was 8.35.

For the origin of these results see patent US9662310B2, “Cyclopropanecarboxylic acid derivative” (DAIICHI SANKYO COMPANY, LIMITED, priority 2010, dated 2017).
